Data taken from the supplement of paper PMC10307832.

Compound: Cc1cc([C@@H](C)Nc2ccccc2C(=O)O)c2nc(N3CCOCC3)cc(=O)n2c1 [AZD6482]
Test: relative viability (nuclei count vs DMSO), 5 days (fraction); higher = more cells survive
Method in brief: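 On vehicle-anchored 1536-well plates, lung cancer cell lines held overnight at 37 °C were pinned with five library-drug doses (not always all listed) spaced by √10. With no medium change over 5 days, they were then fixed, permeabilised and Hoechst-stained in one step and imaged at 4×. MetaXpress counted nuclei, and viability is the median across plates of treated-well over vehicle-well nuclei. Acceptance needed control CV below 25% and at least one doubling.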

Cell Line	relative viability (0.08 µM)	relative viability (0.253 µM)	relative viability (0.8 µM)	relative viability (2.53 µM)	relative viability (8 µM)
201T	0.977	0.97	0.969	0.771	0.958
A549	0.935	0.965	0.947	0.566	0.769
A-427	0.965	0.884	1.02	0.651	0.974
ABC-1	0.953	0.897	0.97	0.849	0.713
BEN	0.889	0.791	1.05	0.803	0.853
CAL-12T	0.959	0.979	1.1	0.731	0.839
COR-L23	0.808	1.02	1.08	0.845	0.834
COR-L 105	0.825	0.904	0.874	0.577	0.801
Calu-6	0.951	0.938	0.992	0.824	0.875
ChaGo-K-1	1.07	0.839	1.05	0.91	0.983
EBC-1	0.881	0.923	0.855	0.467	0.449
EKVX	0.813	0.819	0.832	0.549	0.654
EMC-BAC-2	0.976	0.898	1.01	0.722	0.748
EPLC-272H	0.778	0.71	0.888	0.535	0.596
H3255	0.996	0.918	0.979	0.688	0.835
HARA	0.844	0.978	1.13	0.782	0.875
HCC-15	1.03	0.962	1.04	0.857	0.945
HCC-44	0.873	0.971	1	1.05	1.03
HCC-78	0.749	0.622	0.632	0.372	0.405
HCC-366	0.975	0.979	0.996	0.885	0.827

Cell Line	relative viability (0.08 µM)	relative viability (0.253 µM)	relative viability (0.8 µM)	relative viability (2.53 µM)	relative viability (8 µM)
HCC-827	0.979	1.02	1.02	0.854	0.918
HOP-62	1.11	1.1	1.09	0.833	1.01
IA-LM	0.979	0.99	1.03	–	0.842
LC-2-ad	0.982	0.891	1.07	0.658	0.693
LCLC-97TM1	1.03	0.865	0.855	–	0.836
LCLC-103H	0.875	1.04	0.948	0.655	0.575
LK-2	1.07	0.915	1.07	0.818	0.781
LOU-NH91	0.852	0.918	0.959	0.61	0.744
LU99A	0.915	0.894	1.04	0.797	0.948
LXF-289	1.01	1.07	1.06	0.93	0.973
NCI-H23	0.967	0.861	1	0.61	0.624
NCI-H322M	0.847	0.822	0.838	0.495	0.633
NCI-H358	0.856	0.86	0.92	0.468	0.489
NCI-H441	1.01	0.896	1.22	–	1.02
NCI-H460	0.963	0.969	1.01	0.846	0.822
NCI-H520	0.713	0.627	0.623	0.208	0.337
NCI-H522	0.959	0.789	0.981	0.926	0.768
NCI-H596	0.844	0.91	0.92	0.909	0.929
NCI-H647	0.797	0.564	0.859	0.513	0.646
NCI-H650	1.07	–	0.92	0.653	0.685
